# Measured values taken from BindingDB's records for doi:10.1016/j.ejmech.2015.02.042 (University of Naples, 2015).
# Key:
# [1] = target: Prostaglandin E synthase (Homo sapiens) (UniProt O14684); test: Inhibition of mPGES1 in IL-1beta stimulated human A549 cell microsomal membranes assessed as reduction in PGE2 synthase activity after 15 mins using PGH2 substrate by RP-HPLC method
# [2] = target: Prostaglandin E synthase (Homo sapiens) (UniProt O14684); test: Inhibition of human mPGES1
# Sequence of Prostaglandin E synthase (Homo sapiens) (O14684 whole entry, looked up): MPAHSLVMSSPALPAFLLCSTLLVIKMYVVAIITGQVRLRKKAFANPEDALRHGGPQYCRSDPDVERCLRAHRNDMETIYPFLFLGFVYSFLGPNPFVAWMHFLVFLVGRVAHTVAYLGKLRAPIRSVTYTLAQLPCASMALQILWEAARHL
SMILES,IC50 [1],IC50 [2]
CCCCCCCCCCCCC1=C(O)C(=O)C=C(OC)C1=O,5.8 µM,–
CCCCCCCCCCC1=C(O)C(=O)C=C(OC)C1=O,> 10 µM,–
CCCCCCCCCCCCCCC1=C(O)C(=O)C=C(O)C1=O,1.6 µM,–
CCCCCCCCCCCCC1=C(O)C(=O)C=C(O)C1=O,3.1 µM,–
CCCCCCCCCCC1=C(O)C(=O)C=C(O)C1=O,1 µM,–
CCCCCCCCC1=C(O)C(=O)C=C(O)C1=O,0.8 µM,–
CCCCCCC1=C(O)C(=O)C=C(O)C1=O,> 10 µM,–
CCCCC1=C(O)C(=O)C=C(O)C1=O,> 10 µM,–
CCCCCCCCCCCCCCC1=C(O)C(=O)C=C(OC)C1=O,> 10 µM,–
CCCCCCCCCCCCCCCC1=C(O)C(=O)C=C(OC)C1=O,9.3 µM,–
CCCCCCCCCCCCCCCCC1=C(O)C(=O)C=C(OC)C1=O,> 10 µM,–
COC1=CC(=O)C(O)=C(C/C=C(\C)CCC=C(C)C)C1=O,> 10 µM,–
COC1=CC(=O)C(O)=C(C/C=C(\C)CC/C=C(\C)CCC=C(C)C)C1=O,> 10 µM,–
CCCCC1=C(OC)C(=O)C=C(OC)C1=O,> 10 µM,–
CCCCCCC1=C(OC)C(=O)C=C(OC)C1=O,> 10 µM,–
CCCCCCCCC1=C(OC)C(=O)C=C(OC)C1=O,> 10 µM,–
CCCCCCCCCCC1=C(OC)C(=O)C=C(OC)C1=O,> 10 µM,–
CCCCCCCCCCCC1=C(OC)C(=O)C=C(OC)C1=O,> 10 µM,–
CCCCCCCCCCCCC1=C(OC)C(=O)C=C(OC)C1=O,4.7 µM,–
CCCCCCCCCCCCCC1=C(OC)C(=O)C=C(OC)C1=O,1.8 µM,–
CCCCCCCCCCCCCCC1=C(OC)C(=O)C=C(OC)C1=O,4.4 µM,–
CCCCCCCCCCCCCCCC1=C(OC)C(=O)C=C(OC)C1=O,7.2 µM,–
CCCCCCCCCCCCCCCCC1=C(OC)C(=O)C=C(OC)C1=O,> 10 µM,–
COC1=CC(=O)C(OC)=C(C/C=C(\C)CCC=C(C)C)C1=O,> 10 µM,–

SMILES,IC50 [1],IC50 [2]
COC1=CC(=O)C(OC)=C(C/C=C(\C)CC/C=C(\C)CCC=C(C)C)C1=O,> 10 µM,–
CCCCC1=C(OC)C(OC)=CC(=O)C1=O,> 10 µM,–
CCCCCCC1=C(OC)C(OC)=CC(=O)C1=O,> 10 µM,–
CCCCCCCCC1=C(OC)C(OC)=CC(=O)C1=O,> 10 µM,–
CCCCCCCCC1=C(O)C(=O)C=C(OC)C1=O,> 10 µM,–
CCCCCCC1=C(O)C(=O)C=C(OC)C1=O,> 10 µM,–
CCCCC1=C(O)C(=O)C=C(OC)C1=O,> 10 µM,–
CC(C)=CCC/C(C)=C/CC/C(C)=C/CC1=C(O)C(=O)C=C(O)C1=O,> 10 µM,–
CC(C)=CCC/C(C)=C/CC1=C(O)C(=O)C=C(O)C1=O,> 10 µM,–
CCCCCCCCCCCCCCCCC1=C(O)C(=O)C=C(O)C1=O,> 10 µM,–
CCCCCCCCCCCCCCCC1=C(O)C(=O)C=C(O)C1=O,2.1 µM,–
COC1=CC(=O)C(=O)C(C/C=C(\C)CC/C=C(\C)CCC=C(C)C)=C1OC,> 10 µM,–
COC1=CC(=O)C(=O)C(C/C=C(\C)CCC=C(C)C)=C1OC,> 10 µM,–
CCCCCCCCCCCCCCCC1=C(OC)C(OC)=CC(=O)C1=O,> 10 µM,–
CCCCCCCCCCCCCCC1=C(OC)C(OC)=CC(=O)C1=O,> 10 µM,–
CCCCCCCCCCCCCC1=C(OC)C(OC)=CC(=O)C1=O,> 10 µM,–
CCCCCCCCCCCCC1=C(OC)C(OC)=CC(=O)C1=O,> 10 µM,–
CCCCCCCCCCCC1=C(OC)C(OC)=CC(=O)C1=O,> 10 µM,–
CCCCCCCCCCC1=C(OC)C(OC)=CC(=O)C1=O,> 10 µM,–
CCCCCCCCCCCC1=C(O)C(=O)C=C(O)C1=O [CHEBI:4778],0.21 µM,0.21 µM
CCCCCCCCCCCCCC1=C(O)C(=O)C=C(O)C1=O [CHEBI:8779],0.9 µM,–
CCCCCCCCCCCC1=C(O)C(=O)C=C(OC)C1=O [CHEBI:65842],9.1 µM,–
CCCCCCCCCCCCCC1=C(O)C(=O)C=C(OC)C1=O [Sorgoleone-364],6.1 µM,–
